According to US20090162848A1, “Noxin, a novel stress-induced gene involved in cell cycle and apoptosis” (COLD SPRING HARBOR LABORATORY, priority 2007, published 2009):

What was measured:
Assay type in all cases: cell-based, mouse
NIH3T3 cells [1] = assay: BrdU incorporation (DNA synthesis) in transfected versus untransfected NIH3T3 cells; settings: BrdU labeling for 24 h
Method: In addition, constructs coding for cyan fluorescent protein with a nuclear localization signal (CFP-nuc), yellow fluorescent protein fused to actin (YFP-actin), or vector construct alone were used as controls. Cells were then labeled with BrdU for 24 h and analyzed cells in situ by immunocytochemistry for BrdU and noxin (or other listed proteins) (FIG. 11A-C). In the figures, signals from anti-FLAG antibodies are seen in red; anti-BrdU antibodies are green; Hoechst 33342 (blue) was used for nuclear counter-staining. […] Recombinant protein was detected on a Western blot using the anti-FLAG antibody.

[2] = tested on: noxin mRNA in NIH3T3 cells; assay: Q-PCR of noxin mRNA in NIH3T3 cells exposed to stress stimuli; settings: for induction of noxin mRNA: NIH3T3 cells exposed for 16 hours, Q-PCR
Method: The cDNA was diluted, mixed with 2×SYBR Green PCR Master Mix (Applied Biosystems) and 0.3 μM forward and reverse primers, and amplified using the ABI PRISM 7700 Sequence Detection System (Applied Biosystems). Primers (Sigma Genosys) for noxin and β-actin were designed using Primer Express software (Applied Biosystems) assuming the Tm value of 58-60° C. and the amplicon size of 70-150 bp:
The PCR conditions for the thermal cycler were as follows: denaturation (1 cycle at 95° C. for 10 min), amplification (40 cycles at 95° C. for 15 sec and 60° C. for 1 min). During the amplification, the fluorescence of each sample in the plate was detected in real time and an amplification curve was drawn by Sequence Detection System Software (Applied Biosystems) to get the threshold cycle Cτ, the cycle number at which the curve starts to rise over the background noise. The data from noxin amplifications were normalized using the Cτ value from the β-actin set for each sample and the relative difference in the amount of noxin RNA in untreated and in stress-exposed cells was calculated.
Noxin is induced not only by NO but also by other known stress stimuli. NIH3T3 cells were exposed for 16 hours to γ-irradiation (γ-IR), UV-irradiation (UV-IR), the chemotherapeutic agent adriamycin (ADR), hydrogen peroxide (H2O2), and a mixture of cytokines (TNF-α, IFN-γ, and IL-1β) which is known to be a potent inducer of reactive oxygen and nitrogen species.

[3] = tested on: noxin protein in NIH3T3 cells; assay: Western blot of endogenous noxin protein after stress stimuli; settings: anti-noxin Western blot
Method: (§1) Western blot analysis. Cells or tissues were homogenized in the lysis buffer (10 mM Tris-HCl pH 7.5, 1 mM EDTA, 400 mM NaCl, 0.5% NP40, 5 mM NaF, 0.5 mM sodium orthovanadate, 10% glycerol, 1 mM dithiothreitol, 1 mM PMSF, 1 μg/ml aprotinin, 1 μg/ml leupeptin and 1 μg/ml pepstatin) for 20 min on ice. Following centrifugation, the soluble fraction was collected and protein concentration was determined using the BCA assay kit (Pierce). 50 μg of total protein was separated on an 8% SDS-PAGE gel and transferred to Immobilon-P membrane (Millipore Corporation) by semi-dry blotting. The membranes were incubated with anti-noxin antibody (see above) (1:1,000) followed by anti-mouse IgG or anti-rabbit IgG antibody conjugated to horseradish peroxidase (HRP) (1:10,000, Amersham). The HRP signal was detected using a chemi-luminescence detection kit (SuperSignal Femto Dura Extended Duration Substrate, Pierce) and Hyperfilm X-ray film (Amersham Biosciences).
Furthermore, in the SNAP-, cytokines-, γ-irradiation, and adriamycin-treated cells an additional band of 129 kD was evident.

noxin = assay: Suppression of FLAG-noxin protein by shRNA constructs (co-transfection, Western blot); settings: NIH3T3 cells co-transfected with shRNA, FLAG-noxin and luciferase
Text: The role of noxin in normal cells was probed by down regulating its expression using the RNAi approach. Plasmids expressing six different noxin shRNA (FIG. 22, depicted as HPA-HPF) under control of the human U6 promoter were generated as described (Paddison et al., Proc Natl Acad Sci U.S.A. 99:1443-8 (2002)). The 6 hairpin structures correspond to the following noxin nucleotide positions: The target U6 promoter cassette DNA was amplified using a 5′-primer corresponding to the SP6 site at the 5′-end of the U6 promoter cassette and a long 3′ primer complementary to the 3′-end of the promoter and containing sequences for the noxin shRNA and a pol III termination site. The PCR fragments were subcloned into pENTR-TOPO-D vector (Invitrogen) and then transferred into pMSCV-puro vector by a clonase (Invitrogen) reaction. These six, short hairpin RNA (shRNA) constructs were generated and corresponded to different regions of noxin mRNA and their binding efficiency was compared by co-expressing them with recombinant noxin cDNA (FIG. 20A). To select shRNA constructs, six different shRNA constructs (HPA to HPF) were produced and examined for their ability to suppress the expression of noxin protein. […] After normalization, protein samples were analyzed for the expression of FLAG-noxin protein by Western blot.

NIH3T3 cells [4] = assay: DNA content (PI flow cytometry) of shRNA-transfected, nocodazole-treated NIH3T3 cells; settings: for fraction of cells in the sub-G1 population: nocodazole for 20 h
Method: For this experiment, NIH3T3 cells were transfected with 1 μg (HPC) or 2 μg (2×HPC) of the HPC shRNA construct, treated with nocodazole for 20 h, collected, stained with PI, and analyzed for DNA content using flow cytometry. The downregulation of noxin using this shRNA construct decreased the fraction of cells in G2/M and increased the fraction of cells in the sub-G1 population: 5.7±0.4% in control cells vs. 7.8±1.3% in cells transfected with 1 μg of HPC, and 8.0±1.7% in cells transfected with 2 μg of HPC (FIG. 20B).

NIH3T3 cells [5] = assay: Nuclear morphology (Hoechst) of shRNA/YFP-actin co-transfected cells; settings: co-transfected with YFP-actin, Hoechst stain
Text: Panels 21A-D are images of cells that were co-transfected with the HPC or HPF shRNA constructs together with YFP-actin construct and stained with Hoechst. shRNA-transfected cells were identified by the YFP expression. […] The nuclei of cells transfected with HPF and YFP-actin or with YFP-actin alone and the nuclei of non-transfected cells had normal shape (light blue arrowheads). Scale bar: 10 μm.

[6] = tested on: noxin protein in NIH3T3 cells; assay: Western blot of noxin protein by cell cycle phase and cell cycle inhibitors
Method: as §1, with “The membranes were incubated with anti-noxin antibody (see above) (1:1,000) followed by anti-mouse IgG or anti-rabbit IgG antibody conjugated to horseradish peroxidase (HRP) (1:10,000, Amersham).” left out
The relationship between cell cycle and noxin expression was examined by determining the noxin mRNA levels in cells in various phases of the cell cycle using the methodology as follows: NIH3T3 cells, synchronized by serum starvation (DMEM with 0.5% serum for 24 h) were released from arrest by the addition of 10% serum (corresponds to the 0 h time point). […] Noxin mRNA expression was analyzed using Q-PCR 0, 4, 14, or 20 h after the addition of serum. The cell cycle phase of the cells was determined by flow cytometry in the following manner: […]

In the case of “p21/WAF: cdk inhibitor p21/WAF expressed from transfected plasmid”, the “fraction of BrdU-positive cells in transfected cells, % of the value for the untransfected cells” value (NIH3T3 cells [1]) is reported as 39%.
For `COc1cccc2c1C(=O)c1c(O)c3c(c(O)c1C2=O)C[C@@](O)(C(=O)CO)C[C@@H]3O[C@H]1C[C@H](N)[C@H](O)[C@H](C)O1` [adriamycin], the “induction of noxin mRNA” value [2] was “strong induction”, the “additional noxin band of 129 kD” value [3] was “evident” and the “levels of the 125 kD noxin polypeptide” value [3] was “specifically increased”.
“HPC: noxin shRNA construct, nt 1163-1191 (SEQ ID NO: 16) (DNA GTTGTCATGAAAGTAGATTGTCTGACTCT)” was tested, and the “inhibition of noxin (FLAG-noxin) expression” value (noxin) was “strongest inhibition”, the “fraction of cells in G2/M phase” value (NIH3T3 cells [4]; nocodazole-treated NIH3T3 cells) was “decreased” and the “fraction of cells in the sub-G1 population” value (NIH3T3 cells [4]; transfected with 1 μg construct) was 7.8±1.3%. For the same compound, the “fraction of cells in the sub-G1 population” value (NIH3T3 cells [4]; transfected with 2 μg construct) was 8.0±1.7% and the “nuclear / chromatin morphology of transfected cells” value (NIH3T3 cells [5]) was “condensed chromatin structures”.
For “HPF: noxin shRNA construct, nt 509-537 (SEQ ID NO: 19) (DNA AAACCCTGGACAGTGGTAGAACTCAGAGC)”, the “inhibition of noxin (FLAG-noxin) expression” value (noxin) was “no effect” and the “nuclear / chromatin morphology of transfected cells” value (NIH3T3 cells [5]) was “normal shape”.
`C[C@@]1(CO)[C@H](O)CC[C@@]2(C)[C@H]1CC[C@H]1C[C@@H]3C[C@@]12CC[C@]3(O)CO` [aphidicolin] was tested, and the “Noxin levels in response to cell cycle inhibitors” value [6] was “induced”.
In the case of `OO` [H2O2, hydrogen peroxide], the “induction of noxin mRNA” value [2] is reported as “strong induction”, the “noxin mRNA level versus unstimulated cells” value ([2]; NIH3T3 cells, stress exposure) is reported as 13 fold and the “levels of the 125 kD noxin polypeptide” value [3] is reported as “specifically increased”.
With `COC(=O)Nc1nc2ccc(C(=O)c3cccs3)cc2[nH]1` [nocodazole] the “Noxin levels in response to cell cycle inhibitors” value [6] was “induced” and the “cell cycle effect of nocodazole treatment” value (NIH3T3 cells [4]; NIH3T3 cells, 20 h) was “accumulation of cells in the G2/M phase”.
